According to patent US11833137B2, “Substituted chromenones, IRE1 inhibitors, and methods of using same” (The Wistar Institute, priority 2018, dated 2023):
Entries after “also recorded” stand apart in the source; their conditions may differ.

Tests used:
[1] = Compound degradation HPLC assay; assay type: physicochemical; settings: 37° C.
Method: A 20 mM DMSO stock solution of analyte compounds (7, 8, D-F07, PC-D-F07 and TC-D-F07) were diluted to 400 μM with PBS, pH 7.4, or to 800 μM with RMPI plus 10% FBS culture media (experiments with TC-D-F07 were performed using RPMI without FBS). After incubation at 37° C., aliquots at various time points were injected onto an analytical HPLC instrument and the peaks integrated (UV monitored at 220 nm). Intact compound relative to t=0 was plotted as a function of time.

[2] = tested on: XBP-1s expression, 5TGM1 cells; test: XBP-1s immunoblot in 5TGM1 multiple myeloma cells; assay type: cell-based, mouse; settings: for inhibition of XBP-1s expression, short term: 2.5 μM for 1, 2 or 4 h; for suppression of XBP-1s expression, long term: 10 μM for a course of 3 days
Method: 5TGM1 mouse multiple myeloma cells, primary mouse B cells, primary mouse Eμ-TCL1 CLL cells, and human CLL cell lines (MEC2 and WaC3) were cultured at 37° C. in a 5% CO2 incubator using RPMI 1640 media (Gibco) supplemented with 10% heat-inactivated FBS, 2 mM L-glutamine, 100 U/mL penicillin G sodium, 1 mM sodium pyruvate, 0.1 mM non-essential amino acids, 100 μg/mL streptomycin sulfate and 0.1 mM β-mercaptoethanol (β-ME).
Cells were lysed using RIPA buffer (10 mM Tris-HCl, pH 7.4, 150 mM NaCl, 1% NP-40, 0.5% sodium deoxycholate, 0.1% SDS, and 1 mM EDTA) supplemented with protease inhibitors (Roche). Protein concentrations were determined by BCA assays (Pierce).
Samples were boiled in SDS-PAGE sample buffer (62.5 mM Tris-HCl, pH 6.8, 2% SDS, 10% glycerol, 0.1% bromophenol blue) with β-ME and analyzed by SDS-PAGE. Proteins were transferred to nitrocellulose membranes, blocked in 5% nonfat milk (wt/vol in PBS), and immunoblotted with indicated primary antibodies and appropriate horseradish peroxidase-conjugated secondary antibodies. Immunoblots were developed using Western Lighting Chemiluminescence Reagent (PerkinElmer).
To develop inhibitors with improved potency to target the IRE1/XBP-1 pathway, tricyclic chromenone-based IRE1 RNase inhibitors with different amine group (R^1) were synthesized and compared: allyloxycarbonyl (alloc) in B-H09 (1), —H in C-B06 (2), and —CH3 in C-D06 (3) (FIG. 1A). 5TGM1 multiple myeloma cells were chosen to evaluate inhibitory effects of these inhibitors because they have constitutively activated IRE1/XBP-1 pathways.

[3] = Fluorescence stability (decomposition) in aqueous solution; assay type: physicochemical; settings: 37° C.
Method: (FIG. 2B) 5TGM1 cells were treated with DMSO or with 20 μM 2, 4, 3, or 7 dissolved in DMSO for 3 days and subjected to XTT assays. Percentages of growth were determined by comparing treated groups with control groups (DMSO). Each data point derived from four independent groups receiving exactly the same treatment was plotted as mean±SD. Results are representative of three independent experiments. […] The values of I/I0 were plotted as a function of time and shown in the inset. I0 was the initial fluorescence intensity of 4 at 0 h. […] The values of I/I0 were plotted as a function of time and shown in the inset. I0 was the initial fluorescence intensity of 5 at 0 h. […] (FIG. 2G) The decomposition rates of 7 and 8 were plotted as a function of time in RPMI media incubated at 37° C. Aliquots were analyzed by HPLC and the peaks integrated.
FIGS. 5A-5J illustrate the finding that installation of a boronate cage cleavable by H2O2 stabilizes the 1,3-dioxane acetal protective group of D-F07 to allow for temporal inhibition of XBP-1s upon contact with H2O2. (FIG. 5A) A scheme showing that installation of a boronate-caged group stabilizes the 1,3-dioxane acetal protective group to allow for H2O2-mediated release of intact D-F07. (FIG. 5B) The fluorescence of BC-D-F07a (2.5 μM in the DMSO/PBS solution (v/v=1:99), Ex=360 nm) increases upon incubation with 0 to 200 μM hydrogen peroxide at room temperature for 1 h. (FIG. 5C) The fluorescence of BC-D-F07b (2.5 μM in the DMSO/PBS solution (v/v=1:99), Ex=360 nm) increases upon incubation with 0 to 2 mM hydrogen peroxide at 37° C. for 1 h. […] I0 was the initial fluorescence intensity of D-F07, BC-D-F07a or BC-D-F07b at 0 h. (FIG. 5E) The levels of hydrogen peroxide produced by 5TGM1, 72-h LPS-stimulated primary CLL, MEC2, and WaC3 cells were measured by Amplex Red with or without the addition of extracellular catalase (500 U/mL). (FIG. 5F) 5TGM1 cells were treated with BC-D-F07a at increasing concentrations for 24 h, lysed, and analyzed for the expression of indicated proteins by immunoblots. (FIG. 5G) CD5+ CLL cells purified from spleens of Eμ-TCL1 mice were stimulated with […], subsequently treated with BC-D-F07a at 20 μM for 16 h, and then incubated with hydrogen peroxide at indicated concentrations for another 4 h. Cells were lysed and analyzed for the expression of indicated proteins by immunoblots. […] Cells were lysed and analyzed for the expression of indicated proteins by immunoblots. […] Percentages of growth were determined by comparing treated groups with control groups (DMSO). […]
UV-vis and fluorescence spectra were carried out on a BioTek SYNERGY™ NEO2 instrument (96 well plate).

WaC3 cells = test: Cell proliferation XTT assay, WaC3; assay type: cell-based, human; settings: 20 μM for a course of 3 days
5TGM1 cells = test: Cell proliferation XTT assay, 5TGM1; assay type: cell-based, mouse
Method: 5TGM1 cells were suspended in phenol red-free RPMI media, seeded in 96-well cell culture plates, and treated with indicated IRE1 inhibitors (20 μM, unless indicated otherwise). At indicated time points, cells were spun down and cell proliferation was assessed by XTT assays (Roche) according to the manufacturer's instructions. Briefly, 50 μl XTT labeling reagent, 1 μl electron-coupling reagent, and 100 μl phenol red-free RPMI media were combined and applied to each well of the 96-well plates. Cells were incubated for 4 h in a CO2 incubator to allow for the yellow tetrazolium salt XTT to be cleaved by mitochondrial dehydrogenases of metabolically active cells to form the orange formazan dye, which can be quantified at 492 nm using a BioTek SYNERGY™ NEO2 Multimode Reader.

MEC2 cells = test: Cell proliferation XTT assay, MEC2; assay type: cell-based, human; settings: indicated concentrations, 24 h

COc1cc2c3c(c(=O)oc2c(C2OCCCO2)c1OC(C)c1ccc(C(=O)OCC[Si](C)(C)C)cc1[N+](=O)[O-])CN(C)CC3 [PC-D-F07, 2-(trimethylsilyl)ethyl 4-(1-((7-(1,3-dioxan-2-yl)-9-methoxy-3-methyl-5-oxo-1,3,4,5-tetrahydro-2H-chromeno[3,4-c]pyridin-8-yl)oxy)ethyl)-3-nitrobenzoate]
stability (HPLC) ([1]; PBS, 48 h): completely stable
stability (HPLC) ([1]; RPMI media, 96 h): completely stable
suppression of XBP-1s after removal of compound from media ([2]; 10 μM 4 h, washed, UV 10 min, 8 h culture): suppression of XBP-1s expression

COc1cc2c3c(c(=O)oc2c(C2OCCCO2)c1B1OC(C)(C)C(C)(C)O1)CN(C)CC3 [BC-D-F07b, 7-(1,3-dioxan-2-yl)-9-methoxy-3-methyl-8-(4,4,5,5-tetramethyl-1,3,2-dioxaborolan-2-yl)-3,4-dihydro-1H-chromeno[3,4-c]pyridin-5(2H)-one]
hydrolysis of 1,3-dioxane acetal by fluorescence decay ([3]; aqueous solution, 0 to 48 h, versus D-F07): stabilized the 1,3-dioxane acetal protecting group

COc1cc2c3c(c(=O)oc2c(/C=N/NC(C)=O)c1O)CN(C)CC3 [Compound 10, (E)-N′-((8-hydroxy-9-methoxy-3-methyl-5-oxo-1,3,4,5-tetrahydro-2H-chromeno[3,4-c]pyridin-7-yl)methylene)acetohydrazide]
inhibition of XBP-1s expression, short term [2]: suppressed the expression of XBP-1s more rapidly than 8
suppression of XBP-1s expression, long term [2]: exhibited a long-term inhibitory effect; also recorded: slightly recovered in cells treated with 10 for 3 days
growth suppression (XTT) (WaC3 cells): initially more potent than 7 and 8 in suppressing WaC3 cell growth; also recorded: incapable of continuously inhibiting the growth of WaC3 cells

CN1CCc2c(c(=O)oc3c(C4OCCCO4)c(O)ccc23)C1 [Compound 7, 7-(1,3-dioxan-2-yl)-8-hydroxy-3-methyl-1,2,3,4-tetrahydro-5H-chromeno[3,4-c]pyridin-5-one]
suppression of XBP-1s expression, long term [2]: continuously suppressed even after 3-day treatment; also recorded: more effective than 8 in suppressing the expression of XBP-1s for a longer term
concentration that effectively blocks XBP-1s expression ([2]; 24 h): 10 µM
growth inhibition / cytotoxicity (XTT) (5TGM1 cells; 20 μM for a course of 3 days): more potent than their respective aldehyde counterparts

CN1CCc2c(c(=O)oc3c(C=O)c(O)ccc23)C1 [Compound 3]
inhibition of XBP-1s expression, short term [2]: began to lose its inhibitory effect within 4 h
inhibition of XBP-1s expression ([2]; 10 μM for 0, 3, 6, 12 or 24 h): rapidly inhibited the expression of XBP-1s; also recorded: much better long-term inhibitory activities than 1
suppression of XBP-1s expression, long term [2]: recovered significantly in cells treated for 2 days
overall comparison of inhibition of IRE-1 / XBP-1s expression in whole cells ([2]; summary statement): most efficient aldehyde compounds in inhibiting IRE-1 in intact cells

CC1(C)COC(c2c(O)ccc3c4c(c(=O)oc23)CNCC4)OC1 [Compound 5, 7-(5,5-dimethyl-1,3-dioxan-2-yl)-8-hydroxy-3,4-dihydro-1H-chromeno[3,4-c]pyridin-5(2H)-one]
fluorescence intensity remaining (decomposition) ([3]; PBS with 1% DMSO, 48 h, from 100%): approximately 60%

N[C@@H](CSc1ccc([N+](=O)[O-])cc1[N+](=O)[O-])C(=O)O [Compound 12, (S-2,4-Dinitrophenyl)cysteine]
expression of XBP-1s (ER stress induction) ([2]; 10 μM, 0 to 24 h): time-dependent increased expression of XBP-1s
cytotoxicity / growth inhibition (XTT) (MEC2 cells): not cytotoxic to MEC2 cells

COc1cc2c3c(c(=O)oc2c(C2OCCCO2)c1OS(=O)(=O)c1ccc([N+](=O)[O-])cc1[N+](=O)[O-])CN(C)CC3 [TC-D-F07, 7-(1,3-dioxan-2-yl)-9-methoxy-3-methyl-5-oxo-1,3,4,5-tetrahydro-2H-chromeno[3,4-c]pyridin-8-yl 2,4-dinitrobenzenesulfonate]
intact compound ([1]; 4-h incubation in both PBS and RPMI media): 90%
decomposition rate (HPLC) versus D-F07 ([1]; PBS): slower decomposition rate
suppression of XBP-1s expression ([2]; 2.5 μM, 3 h): significantly suppress the expression of XBP-1s
levels of XBP-1s, time course ([2]; 2.5 μM, 12 h): the levels of XBP-1s began to recover
levels of XBP-1s, time course ([2]; 10 μM, 0 to 12 h): initially increased after 3-h treatment and subsequently decreased in response to continuous 12-h treatment
levels of XBP-1s ([2]; 10 and 20 μM, 3 h): levels of XBP-1s increased
cytotoxicity / growth inhibition (XTT) (MEC2 cells): potently inhibited the growth of these cells
cytotoxicity (XTT) (5TGM1 cells; 0, 2.5, 5, 10 or 20 μM, 24 h): more cytotoxic than D-F07
